Experiments:
IKKε = IKKε (Homo sapiens (Human), UniProt Q14164); experiment: IKKε TR-FRET enzymatic assay; type: biochemical; details: 2x Km ATP, geometric mean of at least four determinations, read-out: IKKe IC50
hJAK2 = hJAK2 (Homo sapiens (Human), UniProt O60674); experiment: hJAK2 LANCE TR-FRET enzymatic assay; type: biochemical; details: read-out: JAK2 IC50
TBK1 = TBK1 (Homo sapiens (Human), UniProt Q9UHD2); experiment: TBK1 TR-FRET enzymatic assay; details: read-out: TBK1 IC50, 2x Km ATP, geometric mean of at least four determinations
Chain of TBK1 (Q9UHD2 whole entry): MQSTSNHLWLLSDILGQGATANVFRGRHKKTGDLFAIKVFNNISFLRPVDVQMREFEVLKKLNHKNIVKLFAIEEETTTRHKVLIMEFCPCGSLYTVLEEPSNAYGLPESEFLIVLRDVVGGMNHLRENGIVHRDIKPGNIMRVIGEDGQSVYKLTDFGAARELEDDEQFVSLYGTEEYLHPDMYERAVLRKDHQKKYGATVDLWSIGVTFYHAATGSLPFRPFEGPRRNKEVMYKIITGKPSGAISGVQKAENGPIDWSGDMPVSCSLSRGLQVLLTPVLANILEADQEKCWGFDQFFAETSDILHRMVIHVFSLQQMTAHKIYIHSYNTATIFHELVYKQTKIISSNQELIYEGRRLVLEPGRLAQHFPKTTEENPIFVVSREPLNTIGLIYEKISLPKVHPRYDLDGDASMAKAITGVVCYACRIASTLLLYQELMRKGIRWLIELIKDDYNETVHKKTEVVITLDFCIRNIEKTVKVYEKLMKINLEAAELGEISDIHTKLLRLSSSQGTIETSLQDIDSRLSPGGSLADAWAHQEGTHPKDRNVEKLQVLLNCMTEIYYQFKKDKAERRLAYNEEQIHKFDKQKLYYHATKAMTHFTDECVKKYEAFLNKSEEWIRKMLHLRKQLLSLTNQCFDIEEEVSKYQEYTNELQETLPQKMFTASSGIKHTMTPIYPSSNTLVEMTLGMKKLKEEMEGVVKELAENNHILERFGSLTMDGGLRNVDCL
Procedure: Enzymatic activity of IKKε and TBK1 was measured using a homogeneous time resolved fluorescence resonance energy transfer (TR-FRET) assay that monitors enzyme dependent phosphorylation of a biotinylated serine/threonine peptide substrate. […] TBK1 and IKKε were expressed and purified as full length recombinant proteins. Detection reagents for the assay were purchased from Cisbio. […] After an assay reaction time of 240 minutes at 25° C., reactions were terminated with EDTA.
All IC50 values represent geometric mean values of a minimum of four determinations.

Chain of IKKε (Q14164 whole entry): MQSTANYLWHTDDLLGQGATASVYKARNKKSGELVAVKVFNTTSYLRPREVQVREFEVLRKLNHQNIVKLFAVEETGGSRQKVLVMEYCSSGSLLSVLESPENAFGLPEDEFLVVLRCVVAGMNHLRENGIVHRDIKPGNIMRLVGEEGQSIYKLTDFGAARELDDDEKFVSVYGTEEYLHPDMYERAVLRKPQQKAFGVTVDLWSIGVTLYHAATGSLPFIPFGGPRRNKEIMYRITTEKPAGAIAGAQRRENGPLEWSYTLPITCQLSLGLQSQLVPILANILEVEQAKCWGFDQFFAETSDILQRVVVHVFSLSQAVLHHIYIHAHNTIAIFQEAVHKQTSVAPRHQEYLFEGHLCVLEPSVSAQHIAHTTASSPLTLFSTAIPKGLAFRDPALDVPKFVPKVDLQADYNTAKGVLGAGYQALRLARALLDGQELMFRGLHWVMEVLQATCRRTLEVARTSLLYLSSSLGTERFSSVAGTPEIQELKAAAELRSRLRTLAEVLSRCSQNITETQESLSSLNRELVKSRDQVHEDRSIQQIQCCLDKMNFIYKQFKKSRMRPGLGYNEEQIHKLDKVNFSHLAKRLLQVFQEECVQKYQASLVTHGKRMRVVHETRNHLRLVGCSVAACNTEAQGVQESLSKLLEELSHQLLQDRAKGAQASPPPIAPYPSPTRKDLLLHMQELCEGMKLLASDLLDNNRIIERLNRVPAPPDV
Chain of hJAK2 (O60674 whole entry): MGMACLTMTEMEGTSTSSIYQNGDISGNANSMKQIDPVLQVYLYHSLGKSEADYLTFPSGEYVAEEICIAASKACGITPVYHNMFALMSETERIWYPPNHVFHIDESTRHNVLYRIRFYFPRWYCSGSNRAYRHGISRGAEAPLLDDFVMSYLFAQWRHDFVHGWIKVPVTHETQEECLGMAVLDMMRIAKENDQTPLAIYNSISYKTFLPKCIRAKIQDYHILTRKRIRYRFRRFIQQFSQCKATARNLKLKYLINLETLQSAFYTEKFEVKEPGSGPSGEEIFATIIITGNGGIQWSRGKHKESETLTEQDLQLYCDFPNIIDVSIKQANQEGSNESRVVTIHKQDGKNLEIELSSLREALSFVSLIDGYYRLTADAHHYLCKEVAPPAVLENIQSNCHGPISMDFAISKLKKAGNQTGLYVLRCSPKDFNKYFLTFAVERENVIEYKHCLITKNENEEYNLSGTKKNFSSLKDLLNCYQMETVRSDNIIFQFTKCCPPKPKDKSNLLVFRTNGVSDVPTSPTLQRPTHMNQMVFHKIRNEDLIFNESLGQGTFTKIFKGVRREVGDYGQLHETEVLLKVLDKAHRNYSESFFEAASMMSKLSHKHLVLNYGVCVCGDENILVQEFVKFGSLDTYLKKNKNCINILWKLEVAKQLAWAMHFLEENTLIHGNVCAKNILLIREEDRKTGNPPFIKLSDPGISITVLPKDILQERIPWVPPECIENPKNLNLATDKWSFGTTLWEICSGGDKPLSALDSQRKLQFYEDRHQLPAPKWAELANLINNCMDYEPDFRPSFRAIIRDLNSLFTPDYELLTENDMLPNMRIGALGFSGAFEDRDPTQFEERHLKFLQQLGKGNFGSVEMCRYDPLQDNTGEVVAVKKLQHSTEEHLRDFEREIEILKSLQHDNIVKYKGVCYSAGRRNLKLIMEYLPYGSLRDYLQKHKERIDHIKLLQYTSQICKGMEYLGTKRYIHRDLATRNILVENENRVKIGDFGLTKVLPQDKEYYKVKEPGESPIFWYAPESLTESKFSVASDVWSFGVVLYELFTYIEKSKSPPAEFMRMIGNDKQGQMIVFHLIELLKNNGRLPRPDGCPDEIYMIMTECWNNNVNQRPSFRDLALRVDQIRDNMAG

Compound	IC50 (IKKε) [nM]	IC50 (hJAK2) [nM]	IC50 (TBK1) [nM]
2-(((3R,4S)-1-((R)-4,4-difluoropyrrolidine-2-carbonyl)-3-fluoropiperidin-4-yl)oxy)-5-(4-((4-(4-(oxetan-3-yl)piperazin-1-yl)phenyl)amino)-1,3,5-triazin-2-yl)benzonitrile [Example 132]	51	1000	25
2-(((3R,4S)-3-fluoro-1-((S)-pyrrolidine-2-carbonyl)piperidin-4-yl)oxy)-5-(4-((4-(4-(oxetan-3-yl)piperazin-1-yl)phenyl)amino)-1,3,5-triazin-2-yl)benzonitrile [Example 133]	1000	1000	
N#Cc1cc(-c2ncnc(Nc3cnn(C(F)F)c3)n2)ccc1O[C@H]1CCNC[C@H]1F [Example 453, 5-(4-((1-(difluoromethyl)-1H-pyrazol-4-yl)amino)-1,3,5-triazin-2-yl)-2-(((3R,4S)-3-fluoropiperidin-4-yl)oxy)benzonitrile]			359

— patent US10253019B2, “Tank-binding kinase inhibitor compounds” (Gilead Sciences, Inc., priority 2014, dated 2019)
